The test system of this assay is L6 myotubes. The assay is described as follows: Glucose uptake (2-deoxy-D-[3H]glucose) in L6 myotubes, effectiveness in muscular glucose utilization. It is filed as cell-based. To be noted: Rattus norvegicus, L6 myotubes treated with compound 2 hours. The procedure:
L6 myoblasts were cultured in DMEM supplemented with 10% FBS. Confluent cells were differentiated to myotubes by culturing with DMEM supplemented with 2% FBS for 6 days. L6 myotubes were treated with compounds for 2 hours. Glucose uptake was performed in 16 h serum-starved cells. Cells were washed with PBS and incubated in Krebs-Ringer phosphate-HEPES buffer containing 0.1% BSA with or without 100 nmol/l insulin. Then, cells were incubated with 0.05 mmol/l 2-deoxy-D-glucose and 0.5 μCi 2-deoxy-D-[1,2-^3H]glucose for 10 min. The assay was terminated by washing the cells three times with ice-cold PBS. Cells were solubilised with 0.1% triton X-100 and radioactivity was determined by liquid scintillation counting. Total cellular protein concentration was measured by the Bradford method. Glucose uptake was performed in duplicate. The compounds were tested at concentrations of 1 uM and 3 uM. In this test, the compounds of formula (I) induce a glucose uptake activity between 1 and 2 fold the glucose uptake activity of the vehicle. Some particularly preferred compounds of formula (I) induce a glucose uptake activity between 1.2 and 2 fold the glucose uptake of the vehicle. Other particularly preferred compounds of formula (I) induce a glucose uptake activity between 1.4 and 2 fold the glucose uptake activity of the vehicle.

Consider `COc1ccc2c(c1OC)C(c1ccccc1)N1CCc3cc4c(cc3C1=C2)OCO4` (centres unmarked) [Example 1, 9,10-Dimethoxy-8-phenyl-5,8-dihydro-6H-[1,3]dioxolo[4,5-g]isoquino[3,2-a]isoquinoline], for which the fold induction (commonly the signal under treatment as a multiple of the control signal) at 1 µM amounted to 1.32 and the fold induction at 3 µM is 1.3.
On to `COc1ccc2c(c1OC)C1(CCCC1)N1CCc3cc4c(cc3C1C2)OCO4` (centres unmarked) [Example 2, 9′,10′-Dimethoxy-5′,6′,13′,13a′-tetrahydrospiro[cyclopentane-1,8′-[1,3]dioxolo[4,5-g]isoquino[3,2-a]isoquinoline]], for which the fold induction at 1 µM stood at 1.11 and the fold induction at 3 µM was 1.07.
The like results for `C=CC1c2c(ccc(OC)c2OC)C=C2c3cc4c(cc3CCN21)OCO4` (centres unmarked) [Example 3, 9,10-Dimethoxy-8-vinyl-5,8-dihydro-6H-[1,3]dioxolo[4,5-g]isoquino[3,2-a]isoquinoline] were, in that order, 1.16 and 1.11.
For `C=C(C)C1c2c(ccc(OC)c2OC)C=C2c3cc4c(cc3CCN21)OCO4` (centres unmarked) [Example 4, 8-Isopropenyl-9,10-dimethoxy-5,8-dihydro-6H-[1,3]dioxolo[4,5-g]isoquino[3,2-a]isoquinoline] the same measures were 1.86 and 1.46.
For `C#CC1c2c(ccc(OC)c2OC)C=C2c3cc4c(cc3CCN21)OCO4` (centres unmarked) [Example 5, 8-Ethynyl-9,10-dimethoxy-5,8-dihydro-6H-[1,3]dioxolo[4,5-g]isoquino[3,2-a]isoquinoline], the fold induction at 3 µM came out at 1.15.
On the same count and under the same terms, under `C=CCC1c2c(ccc(OC)c2OC)C=C2c3cc4c(cc3CCN21)OCO4` (centres unmarked) [Example 6, 8-Allyl-9,10-dimethoxy-5,8-dihydro-6H-[1,3]dioxolo[4,5-g]isoquino[3,2-a]isoquinoline] stands 1.07.
As for `CC#CC1c2c(ccc(OC)c2OC)C=C2c3cc4c(cc3CCN21)OCO4` (centres unmarked) [Example 7, 9,10-Dimethoxy-8-prop-1-ynyl-5,8-dihydro-6H-[1,3]dioxolo[4,5-g]isoquino[3,2-a]isoquinoline], the fold induction at 1 µM amounted to 1.58 and the fold induction at 3 µM worked out at 1.68.
For `C=C(C)C1c2c(ccc(OC)c2OC)C(C)=C2c3cc4c(cc3CCN21)OCO4` (centres unmarked) [Example 8, 8-Isopropenyl-9,10-dimethoxy-13-methyl-5,8-dihydro-6H-[1,3]dioxolo[4,5-g]isoquino[3,2-a]isoquinoline] the same measures were 1.2 and 1.35.
For `CC#CC1c2c(ccc(OC)c2OC)C(C)=C2c3cc4c(cc3CCN21)OCO4` (centres unmarked) [Example 9, 9,10-Dimethoxy-13-methyl-8-prop-1-ynyl-5,8-dihydro-6H-[1,3]dioxolo[4,5-g]isoquino[3,2-a]isoquinoline] the same measures were 1.63 and 0.99.
The like results for `C=C(C)C1c2c(ccc(OC)c2OC)C(CC)=C2c3cc4c(cc3CCN21)OCO4` (centres unmarked) [Example 10, 13-Ethyl-8-isopropenyl-9,10-dimethoxy-5,8-dihydro-6H-[1,3]dioxolo[4,5-g]isoquino[3,2-a]isoquinoline] were, in that order, 1.05 and 1.22.
As to `C=CCC1c2c(ccc(OC)c2OC)C(CC)=C2c3cc4c(cc3CCN21)OCO4` (centres unmarked) [Example 11, 8-Allyl-13-ethyl-9,10-dimethoxy-5,8-dihydro-6H-[1,3]dioxolo[4,5-g]isoquino[3,2-a]isoquinoline], the fold induction at 1 µM was determined as 1.15.
In the case of `CC#CC1c2c(ccc(OC)c2OC)C(CC)=C2c3cc4c(cc3CCN21)OCO4` (centres unmarked) [Example 12, 13-Ethyl-9,10-dimethoxy-8-prop-1-ynyl-5,8-dihydro-6H-[1,3]dioxolo[4,5-g]isoquino[3,2-a]isoquinoline], the fold induction at 1 µM is 1.59 and the fold induction at 3 µM is 1.22.
For `C=CCC1=C2c3cc4c(cc3CCN2C(C(=C)C)c2c1ccc(OC)c2OC)OCO4` (centres unmarked) [Example 13, 13-Allyl-8-isopropenyl-9,10-dimethoxy-5,8-dihydro-6H-[1,3]dioxolo[4,5-g]isoquino[3,2-a]isoquinoline] the same measures were 0.94 and 1.05.
The like results for `COc1ccc2c(c1OC)C(C)(C)N1CCc3cc4c(cc3C1=C2C)OCO4` [Example 14, 9,10-Dimethoxy-8,8,13-trimethyl-5,8-dihydro-6H-[1,3]dioxolo[4,5-g]isoquino[3,2-a]isoquinoline] were, in that order, 1.21 and 1.18.
For `CCC1(CC)c2c(ccc(OC)c2OC)C(C)=C2c3cc4c(cc3CCN21)OCO4` [Example 15, 8,8-Diethyl-9,10-dimethoxy-13-methyl-5,8-dihydro-6H-[1,3]dioxolo[4,5-g]isoquino[3,2-a]isoquinoline] the same measures were 1.22 and 1.14.
As for `CCC1=C2c3cc4c(cc3CCN2C(C)(C)c2c1ccc(OC)c2OC)OCO4` [Example 16, 13-Ethyl-9,10-dimethoxy-8,8-dimethyl-5,8-dihydro-6H-[1,3]dioxolo[4,5-g]isoquino[3,2-a]isoquinoline], the fold induction at 1 µM amounted to 1.25 and the fold induction at 3 µM is 0.91.
For `C=CCC1(CC=C)c2c(ccc(OC)c2OC)C=C2c3cc4c(cc3CCN21)OCO4` [Example 17, 8,8-Diallyl-9,10-dimethoxy-5,8-dihydro-6H-[1,3]dioxolo[4,5-g]isoquino[3,2-a]isoquinoline] the same measures were 1.34 and 1.04.
The like results for `COc1ccc2c(c1OC)C(C)(C)N1CCc3cc4c(cc3C1=C2Cc1ccccc1)OCO4` [Example 18, 13-Benzyl-9,10-dimethoxy-8,8-dimethyl-5,8-dihydro-6H-[1,3]dioxolo[4,5-g]isoquino[3,2-a]isoquinoline] were, in that order, 1.19 and 1.05.
For the compound `COc1cc(Cl)c2c(c1OC)C(C)(C)N1CCc3cc4c(cc3C1=C2)OCO4` [Example 19, 12-Chloro-9,10-dimethoxy-8,8-dimethyl-5,8-dihydro-6H-[1,3]dioxolo[4,5-g]isoquino[3,2-a]isoquinoline], the fold induction at 1 µM turned out to be 1.25 and the fold induction at 3 µM was determined as 1.24.
On to `COc1ccc2c(c1OC)C1(CCCC1)N1CCc3cc4c(cc3C1=C2)OCO4` [Example 20, 9′,10′-Dimethoxy-5′,6′-dihydrospiro[cyclopentane-1,8′-[1,3]dioxolo[4,5-g]isoquino[3,2-a]isoquinoline]], for which the fold induction at 1 µM turned out to be 1.2 and the fold induction at 3 µM turned out to be 1.18.
The like results for `COc1ccc2c(c1OC)C(C)(C)N1CCc3cc4c(cc3C1C2)OCO4` (centres unmarked) [Example 21, 9,10-Dimethoxy-8,8-dimethyl-5,8,13,13a-tetrahydro-6H-[1,3]dioxolo[4,5-g]isoquino[3,2-a]isoquinoline] were, in that order, 1.22 and 1.14.
For `COc1ccc2c(c1OC)C(C)(C)N1CCc3cc4c(cc3C1C2C)OCO4` (centres unmarked) [Example 22, 9,10-Dimethoxy-8,8,13-trimethyl-5,8,13,13a-tetrahydro-6H-[1,3]dioxolo[4,5-g]isoquino[3,2-a]isoquinoline] the same measures were 1.38 and 1.46.
For `CCC1(CC)c2c(ccc(OC)c2OC)C(C)C2c3cc4c(cc3CCN21)OCO4` (centres unmarked) [Example 23, 8,8-Diethyl-9,10-dimethoxy-13-methyl-5,8,13,13a-tetrahydro-6H-[1,3]dioxolo[4,5-g]isoquino[3,2-a]isoquinoline] the same measures were 1.1 and 1.14.
Turning to `COc1ccc2c(c1OC)C(C)(C)N1CCc3cc4c(cc3C1C2Cc1ccccn1)OCO4` (centres unmarked) [Example 24, 9,10-Dimethoxy-8,8-dimethyl-13-pyridin-2-ylmethyl-5,8,13,13a-tetrahydro-6H-[1,3]dioxolo[4,5-g]isoquino[3,2-a]isoquinoline], the fold induction at 1 µM came to 1.11 and the fold induction at 3 µM was 1.03.
For `COc1ccc2c(c1OC)C(C)(C)N1CCc3cc4c(cc3C1C2Cc1ccccc1)OCO4` (centres unmarked) [Example 25, 13-Benzyl-9,10-dimethoxy-8,8-dimethyl-5,8,13,13a-tetrahydro-6H-[1,3]dioxolo[4,5-g]isoquino[3,2-a]isoquinoline] the same measures were 1.13 and 1.02.
For `COc1ccc2c(c1OC)C1(CC=CC1)N1CCc3cc4c(cc3C1C2)OCO4` (centres unmarked) [Example 26, 9′,10′-Dimethoxy-5′,6′,13′,13a′-tetrahydrospiro[cyclopent-3-ene-1,8′-[1,3]dioxolo[4,5-g]isoquino[3,2-a]isoquinoline]] the same measures were 1.12 and 1.11.
For `COc1ccc2c(c1OC)C(C)(C)N1CCc3cc4c(cc3C1=C2)OCO4` [Example 27, 9,10-Dimethoxy-8,8-dimethyl-5,8-dihydro-6H-[1,3]dioxolo[4,5-g]isoquino[3,2-a]isoquinoline], the fold induction at 1 µM amounted to 1.62 and the fold induction at 3 µM was 1.65.
For `CCC1(CC)c2c(ccc(OC)c2OC)C=C2c3cc4c(cc3CCN21)OCO4` [Example 28, 8,8-Diethyl 9,10-dimethoxy-5,8-dihydro-6H-[1,3]dioxolo[4,5-g]isoquino[3,2-a]isoquinoline] the same measures were 1.47 and 1.12.

The record behind these values is patent US8258149B2, “Isoquinoline derivatives” (Hoffmann-La Roche Inc., priority 2009, dated 2012).
